Data taken from US20020052296A1, “Herbicidal synergistic combination of a dihydrobenzothiophene compound and a photosystem II inhibitor” (Intellectual Property Department, BASF Aktiengesellschaft, priority 2000, published 2002).

Columns and labels:
Settings in all cases: 18 days after treatment
PANDI (Fall panicum) = test: Greenhouse postemergence herbicidal evaluation, % weed control; assay type: in vivo, Panicum dichotomiflorum
Protocol: (§1) In the following examples, synergism for two-way combinations is determined by the Colby1 method, i.e. the expected (or predicted) response of the combination is calculated by taking the product of the observed response for each individual component of the combination when applied alone divided by 100 and subtracting this value from the sum of the observed response for each component when applied alone. Synergism of the combination is then determined by comparing the observed response of the combination to the expected (or predicted) response as calculated from the observed responses of each individual component alone. If the observed response of the combination is greater than the expected (or predicted) response then the combination is said to be synergistic and falls within the definition of synergistic effect as previously defined.
(§2) In this evaluation, seedlings of the plant species listed below are grown in Metromix® soil in jiffy flats for about two weeks, to the 2-3 leaf growth stage. The test compounds are dispersed in water containing 1.0% Sunit II, a methylated seed oil of Agsco, Inc., and applied to the plants through a spray nozzle operating at 40 psi for a predetermined time so as to obtain a range of application rates of about 3.0 g/ha to 250 g/ha. Each treatment is replicated 3 times. After spraying, the plants are placed on greenhouse benches and are cared for in accordance with conventional greenhouse procedures. Eighteen days after treatment, the seedling plants are examined and the % weed control as compared to the untreated check is recorded.
(§3) For replicated treatments, the data are averaged. The Colby method of analysis is used to determine the resultant biological effect of the combination treatment as compared to the biological effect of each component when applied alone. In Tables I and II, obs designates observed and exp designates expected.

DIGSA (Crabgrass, large) = test: as above; assay type: in vivo, Digitaria sanguinalis
Protocol: as §1, §2, §3

ERBVI (Cupgrass, woolly) = test: as above; assay type: in vivo, Eriochloa villosa
Protocol: as §1, §2, §3

[1] = system: BRAPP (Signalgrass, broadleaf); test: as above; assay type: in vivo, Brachiaria platyphylla
Protocol: as §1, §2, §3

ECHCG (Barnyardgrass) = test: as above; assay type: in vivo, Echinochloa crus-galli
Protocol: as §1, §2, §3

SORHA (Johnsongrass) = test: as above; assay type: in vivo, Sorghum halepense
Protocol: as §1, §2, §3

SORBI (Shattercane) = test: as above; assay type: in vivo, Sorghum bicolor
Protocol: as §1, §2, §3

AGRRE (Quackgrass) = test: as above; assay type: in vivo, Elytrigia repens
Protocol: as §1, §2, §3

[2] = system: PANMI (Millet, wild proso); test: as above; assay type: in vivo, Panicum miliaceum
Protocol: as §1, §2, §3

SETVI (Foxtail, green) = test: as above; assay type: in vivo, Setaria viridis
Protocol: as §1, §2, §3

SETFA (Foxtail, giant) = test: as above; assay type: in vivo, Setaria faberi
Protocol: as §1, §2, §3

CASOB (Sicklepod) = test: as above; assay type: in vivo, Senna obtusifolia
Protocol: as §1, §2, §3

ZEAMX (Corn) = test: Greenhouse postemergence herbicidal evaluation, crop response; assay type: in vivo, Zea mays
Protocol: as §1, §2, §3

Compound: CCCS(=O)(=O)Oc1c(C(=O)c2ccc3c(c2C)C(C)(C)CS3(=O)=O)cnn1C [DHBT IA, 1-propanesulfonic acid ester of 2,3-dihydro-3,3,4-trimethylbenzo [b]thien-5-yl 5-hydroxy-1-methylpyrazol-4-yl ketone S,S-dioxide]
- % WEED CONTROL PANDI Obs (PANDI (Fall panicum); 3.00 g/ha alone): 40%
- % WEED CONTROL PANDI Obs (PANDI (Fall panicum); 6.00 g/ha alone): 55%
- % WEED CONTROL PANDI Obs (PANDI (Fall panicum); 12.0 g/ha alone): 75%
- % WEED CONTROL DIGSA Obs (DIGSA (Crabgrass, large); 3.00 g/ha alone): 50%
- % WEED CONTROL DIGSA Obs (DIGSA (Crabgrass, large); 6.00 g/ha alone): 70%
- % WEED CONTROL DIGSA Obs (DIGSA (Crabgrass, large); 12.0 g/ha alone): 85%
- % WEED CONTROL ERBVI Obs (ERBVI (Cupgrass, woolly); 3.00 g/ha alone): 0%
- % WEED CONTROL ERBVI Obs (ERBVI (Cupgrass, woolly); 6.00 g/ha alone): 15%
- % WEED CONTROL ERBVI Obs (ERBVI (Cupgrass, woolly); 12.0 g/ha alone): 40%
- % WEED CONTROL BRAPP Obs ([1]; 3.00 g/ha alone): 25%
- % WEED CONTROL BRAPP Obs ([1]; 6.00 g/ha alone): 55%
- % WEED CONTROL BRAPP Obs ([1]; 12.0 g/ha alone): 100%
- % WEED CONTROL ECHCG Obs (ECHCG (Barnyardgrass); 3.00 g/ha alone): 45%
- % WEED CONTROL ECHCG Obs (ECHCG (Barnyardgrass); 6.00 g/ha alone): 60%
- % WEED CONTROL ECHCG Obs (ECHCG (Barnyardgrass); 12.0 g/ha alone): 80%
- % WEED CONTROL SORHA Obs (SORHA (Johnsongrass); 3.00 g/ha alone): 35%
- % WEED CONTROL SORHA Obs (SORHA (Johnsongrass); 6.00 g/ha alone): 40%
- % WEED CONTROL SORHA Obs (SORHA (Johnsongrass); 12.0 g/ha alone): 65%
- % WEED CONTROL SORBI Obs (SORBI (Shattercane); 3.00 g/ha alone): 30%
- % WEED CONTROL SORBI Obs (SORBI (Shattercane); 6.00 g/ha alone): 35%
- % WEED CONTROL SORBI Obs (SORBI (Shattercane); 12.0 g/ha alone): 60%
- % WEED CONTROL AGRRE Obs (AGRRE (Quackgrass); 3.00 g/ha alone): 20%
- % WEED CONTROL AGRRE Obs (AGRRE (Quackgrass); 6.00 g/ha alone): 30%
- % WEED CONTROL AGRRE Obs (AGRRE (Quackgrass); 12.0 g/ha alone): 35%
- % WEED CONTROL PANMI Obs ([2]; 3.00 g/ha alone): 40%
- % WEED CONTROL PANMI Obs ([2]; 6.00 g/ha alone): 70%
- % WEED CONTROL PANMI Obs ([2]; 12.0 g/ha alone): 95%
- % WEED CONTROL SETVI Obs (SETVI (Foxtail, green); 3.00 g/ha alone): 35%
- % WEED CONTROL SETVI Obs (SETVI (Foxtail, green); 6.00 g/ha alone): 100%
- % WEED CONTROL SETVI Obs (SETVI (Foxtail, green); 12.0 g/ha alone): 80%
- % WEED CONTROL SETFA Obs (SETFA (Foxtail, giant); 3.00 g/ha alone): 35%
- % WEED CONTROL SETFA Obs (SETFA (Foxtail, giant); 6.00 g/ha alone): 55%
- % WEED CONTROL SETFA Obs (SETFA (Foxtail, giant); 12.0 g/ha alone): 90%
- % WEED CONTROL CASOB Obs (CASOB (Sicklepod); 3.00 g/ha alone): 15%
- % WEED CONTROL CASOB Obs (CASOB (Sicklepod); 6.00 g/ha alone): 25%
- % WEED CONTROL CASOB Obs (CASOB (Sicklepod); 12.0 g/ha alone): 25%
- % crop injury, corn (observed) (ZEAMX (Corn); 3.00 g/ha alone): 0%
- % crop injury, corn (observed) (ZEAMX (Corn); 6.00 g/ha alone): 0%
- % crop injury, corn (observed) (ZEAMX (Corn); 12.0 g/ha alone): 0%

Compound: Atrazine [reference compound]
- % WEED CONTROL PANDI Obs (PANDI (Fall panicum); 250 g/ha alone): 5%
- % WEED CONTROL DIGSA Obs (DIGSA (Crabgrass, large); 250 g/ha alone): 15%
- % WEED CONTROL ERBVI Obs (ERBVI (Cupgrass, woolly); 250 g/ha alone): 10%
- % WEED CONTROL BRAPP Obs ([1]; 250 g/ha alone): 20%
- % WEED CONTROL ECHCG Obs (ECHCG (Barnyardgrass); 250 g/ha alone): 85%
- % WEED CONTROL SORHA Obs (SORHA (Johnsongrass); 250 g/ha alone): 0%
- % WEED CONTROL SORBI Obs (SORBI (Shattercane); 250 g/ha alone): 0%
- % WEED CONTROL AGRRE Obs (AGRRE (Quackgrass); 250 g/ha alone): 45%
- % WEED CONTROL PANMI Obs ([2]; 250 g/ha alone): 60%
- % WEED CONTROL SETVI Obs (SETVI (Foxtail, green); 250 g/ha alone): 90%
- % WEED CONTROL SETFA Obs (SETFA (Foxtail, giant); 250 g/ha alone): 85%
- % WEED CONTROL CASOB Obs (CASOB (Sicklepod); 250 g/ha alone): 40%
- % crop injury, corn (observed) (ZEAMX (Corn); 250 g/ha alone): 0%
